Data from PubChem BioAssay (NCI).
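Method: 48-hour compound exposure of cells in 96-well plates, five concentrations, linear interpolation of endpoints. GI50 is the concentration that inhibits growth by half. TGI: concentration producing complete growth inhibition.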

Columns and labels:
Test in all cases: NCI anticancer screen, dose series, 48 h
UACC-62 melanoma = system: UACC-62 melanoma
HCT-15 colon = system: HCT-15 colon
IGROV1 ovarian = system: IGROV1 ovarian
NCI-H460 lung = system: NCI-H460 lung
HOP-62 NSCLC = system: HOP-62 NSCLC
LOX IMVI melanoma = system: LOX IMVI melanoma
SK-OV-3 ovarian = system: SK-OV-3 ovarian
SNB-75 CNS = system: SNB-75 CNS
OVCAR-5 ovarian = system: OVCAR-5 ovarian
A498 renal = system: A498 renal

SMILES: Nc1nc(Cl)cc(NCCCCCCCCCCNc2cc(Cl)nc(N)n2)n1
- TGI (UACC-62 melanoma): > 100 µM
- TGI (HCT-15 colon): > 100 µM
- TGI (IGROV1 ovarian): > 100 µM
- TGI (NCI-H460 lung): > 100 µM
- TGI (HOP-62 NSCLC): > 100 µM
- TGI (LOX IMVI melanoma): 24.2 µM
- TGI (SK-OV-3 ovarian): > 100 µM
- TGI (SNB-75 CNS): 68.8 µM
- TGI (OVCAR-5 ovarian): > 100 µM

SMILES: Cc1ccc(C)c(NC(=O)CCc2n[nH]c(=S)o2)c1
- TGI (UACC-62 melanoma): > 100 µM
- TGI (HCT-15 colon): > 100 µM
- TGI (A498 renal): > 100 µM
- TGI (IGROV1 ovarian): > 100 µM
- TGI (NCI-H460 lung): > 100 µM
- TGI (HOP-62 NSCLC): > 100 µM
- TGI (LOX IMVI melanoma): > 100 µM
- TGI (SNB-75 CNS): > 100 µM
- TGI (OVCAR-5 ovarian): > 100 µM

SMILES: CCOc1ccc(N2C(N)=NC(N)=NC2(C)C)cc1
- GI50 (UACC-62 melanoma): 43.8 µM
- TGI (UACC-62 melanoma): > 100 µM
- GI50 (HCT-15 colon): > 100 µM
- TGI (HCT-15 colon): > 100 µM
- GI50 (IGROV1 ovarian): 46.5 µM
- TGI (IGROV1 ovarian): > 100 µM
- GI50 (NCI-H460 lung): 39.8 µM
- TGI (NCI-H460 lung): > 100 µM
- GI50 (HOP-62 NSCLC): 95 µM
- TGI (HOP-62 NSCLC): > 100 µM
- GI50 (LOX IMVI melanoma): 45.8 µM
- TGI (LOX IMVI melanoma): > 100 µM
- GI50 (SK-OV-3 ovarian): > 100 µM
- TGI (SK-OV-3 ovarian): > 100 µM
- GI50 (SNB-75 CNS): 60.5 µM
- TGI (SNB-75 CNS): > 100 µM
- GI50 (OVCAR-5 ovarian): 39.7 µM
- TGI (OVCAR-5 ovarian): > 100 µM

SMILES: CCn1c(-c2cc3ccccc3cc2OC(=O)c2ccccc2)n[nH]c1=S
- GI50 (UACC-62 melanoma): 28.8 µM
- TGI (UACC-62 melanoma): > 50 µM
- GI50 (HCT-15 colon): > 50 µM
- TGI (HCT-15 colon): > 50 µM
- GI50 (IGROV1 ovarian): 1.51 µM
- TGI (IGROV1 ovarian): 8.54 µM
- GI50 (HOP-62 NSCLC): > 50 µM
- TGI (HOP-62 NSCLC): > 50 µM
- GI50 (LOX IMVI melanoma): 26.6 µM
- TGI (LOX IMVI melanoma): > 50 µM
- GI50 (SK-OV-3 ovarian): > 50 µM
- TGI (SK-OV-3 ovarian): > 50 µM
- GI50 (SNB-75 CNS): > 50 µM
- TGI (SNB-75 CNS): > 50 µM
- GI50 (OVCAR-5 ovarian): > 50 µM
- TGI (OVCAR-5 ovarian): > 50 µM

SMILES: O=[N+]([O-])C(=C(c1ccccc1)c1ccccc1)[N+](=O)[O-]
- TGI (UACC-62 melanoma): 9.56 µM
- TGI (HCT-15 colon): 32.6 µM
- TGI (A498 renal): 28.6 µM
- TGI (IGROV1 ovarian): 23.2 µM
- TGI (NCI-H460 lung): 21 µM
- TGI (LOX IMVI melanoma): 9.68 µM
- TGI (SNB-75 CNS): 28.5 µM
- TGI (OVCAR-5 ovarian): 34.5 µM

SMILES: C/C(=N\NC(=S)Nc1ccc([N+](=O)[O-])cc1S(=O)(=O)O)c1ccccn1
- TGI (UACC-62 melanoma): > 100 µM
- TGI (HCT-15 colon): > 100 µM
- TGI (A498 renal): 88.8 µM
- TGI (IGROV1 ovarian): > 100 µM
- TGI (NCI-H460 lung): 69 µM
- TGI (HOP-62 NSCLC): > 100 µM
- TGI (LOX IMVI melanoma): > 100 µM
- TGI (SNB-75 CNS): > 100 µM
- TGI (OVCAR-5 ovarian): > 100 µM

SMILES: CC1=C[C@H]2C[C@@]3(C)O[C@@H]([C@]4(C)CC[C@H]([C@@H](C)C(=O)O)OO4)CC3C(C)(C)[C@H]2CC1 (stereo not given in full)
- TGI (NCI-H460 lung): 2.74 µM
- TGI (HOP-62 NSCLC): 3.94 µM
- TGI (LOX IMVI melanoma): 0.296 µM
- TGI (SNB-75 CNS): 2.35 µM
- TGI (OVCAR-5 ovarian): 4.67 µM

SMILES: CN(C)c1ccc(/C=N/Nc2ccc(-c3nc4ccccc4[nH]3)cc2)cc1
- GI50 (UACC-62 melanoma): 8.32 µM
- TGI (UACC-62 melanoma): 24.3 µM
- GI50 (HCT-15 colon): 6.73 µM
- TGI (HCT-15 colon): 35.7 µM
- GI50 (IGROV1 ovarian): 9.37 µM
- TGI (IGROV1 ovarian): > 50 µM
- GI50 (NCI-H460 lung): 9.33 µM
- TGI (NCI-H460 lung): 20.4 µM
- GI50 (HOP-62 NSCLC): 20.8 µM
- TGI (HOP-62 NSCLC): > 50 µM
- GI50 (LOX IMVI melanoma): 4.86 µM
- TGI (LOX IMVI melanoma): 11.6 µM
- GI50 (SK-OV-3 ovarian): 21.2 µM
- TGI (SK-OV-3 ovarian): > 50 µM
- GI50 (OVCAR-5 ovarian): 28.9 µM
- TGI (OVCAR-5 ovarian): > 50 µM

SMILES: O=C(O)c1oc2ccc([N+](=O)[O-])c3c2c1CCC3
- TGI (NCI-H460 lung): > 100 µM
- TGI (HOP-62 NSCLC): > 100 µM
- TGI (LOX IMVI melanoma): > 100 µM
- TGI (SNB-75 CNS): > 100 µM
- TGI (OVCAR-5 ovarian): > 100 µM

SMILES: C(=C1/CCCCC([n+]2ccccc2)=N1)/c1ccccc1
- TGI (UACC-62 melanoma): > 100 µM
- TGI (HCT-15 colon): > 100 µM
- TGI (NCI-H460 lung): > 100 µM
- TGI (HOP-62 NSCLC): > 100 µM
- TGI (LOX IMVI melanoma): > 100 µM
- TGI (SK-OV-3 ovarian): > 100 µM
- TGI (SNB-75 CNS): > 100 µM
- TGI (OVCAR-5 ovarian): > 100 µM

SMILES: COc1ccc(/C=C/CO)cc1OC
- TGI (UACC-62 melanoma): > 100 µM
- TGI (HCT-15 colon): > 100 µM
- TGI (IGROV1 ovarian): > 100 µM
- TGI (SK-OV-3 ovarian): > 100 µM
- TGI (SNB-75 CNS): > 100 µM
- TGI (OVCAR-5 ovarian): > 100 µM

SMILES: C/C(=N\n1c(N)c(C#N)c(-c2ccc(Cl)cc2)c(C#N)c1=O)c1cccnc1
- GI50 (UACC-62 melanoma): > 100 µM
- TGI (UACC-62 melanoma): > 100 µM
- GI50 (HCT-15 colon): > 100 µM
- TGI (HCT-15 colon): > 100 µM
- GI50 (IGROV1 ovarian): > 100 µM
- TGI (IGROV1 ovarian): > 100 µM
- GI50 (NCI-H460 lung): > 100 µM
- TGI (NCI-H460 lung): > 100 µM
- GI50 (HOP-62 NSCLC): > 100 µM
- TGI (HOP-62 NSCLC): > 100 µM
- GI50 (LOX IMVI melanoma): > 100 µM
- TGI (LOX IMVI melanoma): > 100 µM
- GI50 (SK-OV-3 ovarian): > 100 µM
- TGI (SK-OV-3 ovarian): > 100 µM
- GI50 (SNB-75 CNS): 14.6 µM
- TGI (SNB-75 CNS): 99.6 µM
- GI50 (OVCAR-5 ovarian): > 100 µM
- TGI (OVCAR-5 ovarian): > 100 µM

SMILES: CC(=O)Nc1[nH]c(=O)[nH]c(=O)c1N(C(C)=O)C(C)=O
- TGI (UACC-62 melanoma): > 100 µM
- TGI (HCT-15 colon): > 100 µM
- TGI (A498 renal): > 100 µM
- TGI (IGROV1 ovarian): > 100 µM
- TGI (NCI-H460 lung): > 100 µM
- TGI (LOX IMVI melanoma): > 100 µM
- TGI (OVCAR-5 ovarian): > 100 µM

SMILES: CC1=CC(=O)c2[nH]c3ccccc3c2C1=O
- GI50 (UACC-62 melanoma): 4.21 µM
- TGI (UACC-62 melanoma): 7.67 µM
- GI50 (HCT-15 colon): 4.2 µM
- TGI (HCT-15 colon): 7.61 µM
- GI50 (IGROV1 ovarian): 6.63 µM
- TGI (IGROV1 ovarian): 17.1 µM
- GI50 (NCI-H460 lung): 8.11 µM
- TGI (NCI-H460 lung): > 25 µM
- TGI (HOP-62 NSCLC): > 25 µM
- GI50 (SK-OV-3 ovarian): 21.1 µM
- TGI (SK-OV-3 ovarian): > 25 µM
- GI50 (SNB-75 CNS): 4.36 µM
- TGI (SNB-75 CNS): 8.28 µM
- TGI (OVCAR-5 ovarian): 12.2 µM

SMILES: C[C@@H]1CC[C@H]2C(CN3CCN(CC4=C(C(F)(F)F)O[C@@H]5O[C@@]6(C)CC[C@H]7[C@H](C)CC[C@@H]4[C@@]57OO6)CC3)=C(C(F)(F)F)O[C@@H]3O[C@@]4(C)CC[C@@H]1[C@]32OO4
- GI50 (UACC-62 melanoma): 6.35 µM
- TGI (UACC-62 melanoma): > 100 µM
- GI50 (HCT-15 colon): 1.79 µM
- TGI (HCT-15 colon): > 37.2 µM
- GI50 (IGROV1 ovarian): > 27.4 µM
- TGI (IGROV1 ovarian): > 100 µM
- GI50 (NCI-H460 lung): 3.14 µM
- TGI (NCI-H460 lung): > 100 µM
- TGI (HOP-62 NSCLC): > 46.9 µM
- GI50 (LOX IMVI melanoma): 2.3 µM
- TGI (LOX IMVI melanoma): > 100 µM
- GI50 (SK-OV-3 ovarian): > 100 µM
- TGI (SK-OV-3 ovarian): > 100 µM
- GI50 (SNB-75 CNS): 1.74 µM
- TGI (SNB-75 CNS): > 29.4 µM
- GI50 (OVCAR-5 ovarian): 1.45 µM
- TGI (OVCAR-5 ovarian): > 100 µM
